Measurements from ChEMBL document CHEMBL1909046, “DrugMatrix in vitro pharmacology data”.

How the values were obtained:
[1] = DRUGMATRIX: Platelet-Derived Growth Factor (PDGF) radioligand binding (ligand: [125I] PDGF); assay type: cell-based; settings: nih3t3; Not Active = under 50% inhibition at 10 µM
Cytochrome P450 2A6 = biological target: T1, Cytochrome P450 2A6 (Homo sapiens, UniProt P11509); settings: bti-tn-5b1-4; further: in other assays of this panel Not Active means under 50% inhibition at 10 µM
T1 sequence (P11509 whole entry): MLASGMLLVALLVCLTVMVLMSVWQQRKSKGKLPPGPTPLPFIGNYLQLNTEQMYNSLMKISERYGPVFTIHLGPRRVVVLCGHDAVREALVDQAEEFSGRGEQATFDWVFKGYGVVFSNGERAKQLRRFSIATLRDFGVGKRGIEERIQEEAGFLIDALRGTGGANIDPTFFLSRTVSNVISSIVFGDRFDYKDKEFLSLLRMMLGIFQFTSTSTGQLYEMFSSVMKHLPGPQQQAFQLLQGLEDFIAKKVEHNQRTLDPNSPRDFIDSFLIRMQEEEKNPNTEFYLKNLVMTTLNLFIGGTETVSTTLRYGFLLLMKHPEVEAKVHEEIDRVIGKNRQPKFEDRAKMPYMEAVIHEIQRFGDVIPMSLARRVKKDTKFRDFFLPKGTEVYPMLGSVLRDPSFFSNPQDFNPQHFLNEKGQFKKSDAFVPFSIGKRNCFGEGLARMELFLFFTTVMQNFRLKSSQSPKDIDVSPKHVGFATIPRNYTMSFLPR

Leukotriene C4 synthase = biological target: T2, Leukotriene C4 synthase (Cavia porcellus, UniProt A6XA80); assay type: tissue-based, Lung;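 further: enzyme inhibition assay of leukotriene C4 synthase, using LTA4 as the substrate; in other assays of this panel Not Active means under 50% inhibition at 10 µM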
T2 sequence (A6XA80 whole entry): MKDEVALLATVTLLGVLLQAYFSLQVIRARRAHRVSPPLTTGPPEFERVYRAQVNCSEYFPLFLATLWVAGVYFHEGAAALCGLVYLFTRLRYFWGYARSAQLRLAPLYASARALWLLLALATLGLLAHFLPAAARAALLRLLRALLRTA

[2] = DRUGMATRIX: Tumor Necrosis Factor (TNF), Non-Selective radioligand binding (ligand: [125I] TNF-alpha); assay type: cell membranes, Membrane; settings: u-937; Not Active = under 50% inhibition at 10 µM
[3] = DRUGMATRIX: Calcium Channel Type L, Phenylalkylamine radioligand binding (ligand: [3H] (-)-Desmethoxyverapamil (D-888)); assay type: cell membranes, Rattus norvegicus, Wistar, Brain, Membrane; settings: Not Active = under 50% inhibition at 10 µM
[4] = DRUGMATRIX: Sigma2 radioligand binding (ligand: [3H] Ifenprodil); assay type: cell membranes, Rattus norvegicus, Wistar, Brain, Membrane; settings: Not Active = under 50% inhibition at 10 µM
Adenosine receptor A2a = Adenosine receptor A2a (Homo sapiens, UniProt P29274); assay: DRUGMATRIX: Adenosine A2A radioligand binding (ligand: […]); assay type: cell membranes, Membrane; settings: hek293; Not Active = under 50% inhibition at 10 µM
Adenosine receptor A2a, sequence (P29274 whole entry): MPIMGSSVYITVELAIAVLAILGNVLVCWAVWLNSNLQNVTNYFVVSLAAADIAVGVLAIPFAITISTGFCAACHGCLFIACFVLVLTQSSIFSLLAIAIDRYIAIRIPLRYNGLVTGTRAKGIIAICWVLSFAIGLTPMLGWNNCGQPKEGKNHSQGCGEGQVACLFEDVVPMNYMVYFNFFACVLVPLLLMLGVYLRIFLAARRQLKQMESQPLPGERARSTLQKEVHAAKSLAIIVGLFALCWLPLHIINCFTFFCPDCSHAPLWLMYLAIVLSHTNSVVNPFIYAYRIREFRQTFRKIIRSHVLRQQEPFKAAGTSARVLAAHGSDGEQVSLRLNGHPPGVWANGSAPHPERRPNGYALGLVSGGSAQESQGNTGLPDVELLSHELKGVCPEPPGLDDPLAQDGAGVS

CSc1ccc(/C=C2/C(C)=C(CC(=O)O)c3cc(F)ccc32)cc1 [SULINDAC SULFIDE]
Not Active: IC50 [1] | Ki [1] | IC50 (Cytochrome P450 2A6) | Ki (Cytochrome P450 2A6) | IC50 (Leukotriene C4 synthase) | IC50 [2] | Ki [2] | IC50 [3] | Ki [3] | IC50 [4] | Ki [4] | IC50 (Adenosine receptor A2a)

Nc1c2c(nc3ccccc13)CCCC2 [TACRINE]
Not Active: IC50 [1] | Ki [1] | IC50 (Cytochrome P450 2A6) | Ki (Cytochrome P450 2A6) | IC50 (Leukotriene C4 synthase) | IC50 [2] | Ki [2] | IC50 [3] | Ki [3] | IC50 [4] | Ki [4] | IC50 (Adenosine receptor A2a)

Nc1nc2nc[nH]c2c(=S)[nH]1 [THIOGUANINE]
Not Active: IC50 [1] | Ki [1] | IC50 (Cytochrome P450 2A6) | Ki (Cytochrome P450 2A6) | IC50 (Leukotriene C4 synthase) | IC50 [2] | Ki [2] | IC50 [3] | Ki [3] | IC50 [4] | Ki [4] | IC50 (Adenosine receptor A2a)

Cc1cccc(N(C)C(=S)Oc2ccc3ccccc3c2)c1 [TOLNAFTATE]
Not Active: IC50 [1] | Ki [1] | IC50 (Cytochrome P450 2A6) | Ki (Cytochrome P450 2A6) | IC50 (Leukotriene C4 synthase) | IC50 [2] | Ki [2] | IC50 [3] | Ki [3] | IC50 [4] | Ki [4] | IC50 (Adenosine receptor A2a)

NC[C@H]1CC[C@H](C(=O)O)CC1 [TRANEXAMIC ACID]
Not Active: IC50 [1] | Ki [1] | IC50 (Cytochrome P450 2A6) | Ki (Cytochrome P450 2A6) | IC50 (Leukotriene C4 synthase) | IC50 [2] | Ki [2] | IC50 [3] | Ki [3] | IC50 [4] | Ki [4] | IC50 (Adenosine receptor A2a)

CC1(C)O[C@@H]2C[C@H]3[C@@H]4CCC5=CC(=O)C=C[C@]5(C)[C@@]4(F)[C@@H](O)C[C@]3(C)[C@]2(C(=O)CO)O1 [TRIAMCINOLONE ACETONIDE]
Not Active: IC50 [1] | Ki [1] | IC50 (Cytochrome P450 2A6) | Ki (Cytochrome P450 2A6) | IC50 (Leukotriene C4 synthase) | IC50 [2] | Ki [2] | IC50 [3] | Ki [3] | IC50 [4] | Ki [4] | IC50 (Adenosine receptor A2a)

NS(=O)(=O)c1cc2c(cc1Cl)NC(C(Cl)Cl)NS2(=O)=O (stereo not given) [TRICHLORMETHIAZIDE]
Not Active: IC50 [1] | Ki [1] | IC50 (Cytochrome P450 2A6) | Ki (Cytochrome P450 2A6) | IC50 (Leukotriene C4 synthase) | IC50 [2] | Ki [2] | IC50 [3] | Ki [3] | IC50 [4] | Ki [4] | IC50 (Adenosine receptor A2a)

Cc1c(C)c2c(c(C)c1O)CCC(C)(COc1ccc(CC3SC(=O)NC3=O)cc1)O2 (stereo not given) [TROGLITAZONE]
Not Active: IC50 [1] | Ki [1] | IC50 (Cytochrome P450 2A6) | Ki (Cytochrome P450 2A6) | IC50 (Leukotriene C4 synthase) | IC50 [2] | Ki [2] | IC50 [3] | Ki [3] | IC50 [4] | Ki [4] | IC50 (Adenosine receptor A2a)

N[C@@H]1[C@H]2CN(c3nc4c(cc3F)c(=O)c(C(=O)O)cn4-c3ccc(F)cc3F)C[C@@H]12 [TROVAFLOXACIN]
Not Active: IC50 [1] | Ki [1] | IC50 (Cytochrome P450 2A6) | Ki (Cytochrome P450 2A6) | IC50 (Leukotriene C4 synthase) | IC50 [2] | Ki [2] | IC50 [3] | Ki [3] | IC50 [4] | Ki [4] | IC50 (Adenosine receptor A2a)

N#CC(C#N)=Cc1ccc(O)c(O)c1 [TYRPHOSTIN 23]
Not Active: IC50 [1] | Ki [1] | IC50 (Cytochrome P450 2A6) | Ki (Cytochrome P450 2A6) | IC50 (Leukotriene C4 synthase) | IC50 [2] | Ki [2] | IC50 [3] | Ki [3] | IC50 [4] | Ki [4] | IC50 (Adenosine receptor A2a)
